Results as given in ChEMBL document CHEMBL1201862, “PubChem BioAssay data set” (2004).
Active and inactive are the calls of the source. Rule as the data show it, for most assays here: actives have a measured IC50 and inactives only a lower limit.

Columns and labels:
Type in all cases: functional
[1] = Luminescence Cell-Based Dose Retest to Confirm Inhibitors of Cancer Stem Cells. [Related pubchem assays (depositor defined):AID2717, AID2721]; settings: Homo sapiens
[2] = molecular target: T1, Sentrin-specific protease 8 (Homo sapiens, UniProt Q96LD8);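 also: luminescence read-out of SENP8 inhibition, dose-response confirmation following an ultra-high-throughput screen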
T1 sequence (Q96LD8 whole entry): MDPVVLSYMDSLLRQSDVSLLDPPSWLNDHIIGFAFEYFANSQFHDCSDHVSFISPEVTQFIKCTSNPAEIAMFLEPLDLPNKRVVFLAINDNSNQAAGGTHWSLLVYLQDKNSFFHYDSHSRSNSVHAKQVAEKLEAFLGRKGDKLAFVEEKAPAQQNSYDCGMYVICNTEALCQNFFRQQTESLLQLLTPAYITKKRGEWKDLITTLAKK

[3] = cytotoxicity toward DRD oncogenic fibroblasts, dose response, cell-based, non-viral oncogenic, luminescence (AID 1934); settings: Homo sapiens
[4] = molecular target: T2, Sentrin-specific protease 7 (Homo sapiens, UniProt Q9BQF6);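 also: Luminescence-based dose-response confirmation of ultra-high-throughput screening hits, measuring inhibition of SENP7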
T2 sequence (Q9BQF6 whole entry): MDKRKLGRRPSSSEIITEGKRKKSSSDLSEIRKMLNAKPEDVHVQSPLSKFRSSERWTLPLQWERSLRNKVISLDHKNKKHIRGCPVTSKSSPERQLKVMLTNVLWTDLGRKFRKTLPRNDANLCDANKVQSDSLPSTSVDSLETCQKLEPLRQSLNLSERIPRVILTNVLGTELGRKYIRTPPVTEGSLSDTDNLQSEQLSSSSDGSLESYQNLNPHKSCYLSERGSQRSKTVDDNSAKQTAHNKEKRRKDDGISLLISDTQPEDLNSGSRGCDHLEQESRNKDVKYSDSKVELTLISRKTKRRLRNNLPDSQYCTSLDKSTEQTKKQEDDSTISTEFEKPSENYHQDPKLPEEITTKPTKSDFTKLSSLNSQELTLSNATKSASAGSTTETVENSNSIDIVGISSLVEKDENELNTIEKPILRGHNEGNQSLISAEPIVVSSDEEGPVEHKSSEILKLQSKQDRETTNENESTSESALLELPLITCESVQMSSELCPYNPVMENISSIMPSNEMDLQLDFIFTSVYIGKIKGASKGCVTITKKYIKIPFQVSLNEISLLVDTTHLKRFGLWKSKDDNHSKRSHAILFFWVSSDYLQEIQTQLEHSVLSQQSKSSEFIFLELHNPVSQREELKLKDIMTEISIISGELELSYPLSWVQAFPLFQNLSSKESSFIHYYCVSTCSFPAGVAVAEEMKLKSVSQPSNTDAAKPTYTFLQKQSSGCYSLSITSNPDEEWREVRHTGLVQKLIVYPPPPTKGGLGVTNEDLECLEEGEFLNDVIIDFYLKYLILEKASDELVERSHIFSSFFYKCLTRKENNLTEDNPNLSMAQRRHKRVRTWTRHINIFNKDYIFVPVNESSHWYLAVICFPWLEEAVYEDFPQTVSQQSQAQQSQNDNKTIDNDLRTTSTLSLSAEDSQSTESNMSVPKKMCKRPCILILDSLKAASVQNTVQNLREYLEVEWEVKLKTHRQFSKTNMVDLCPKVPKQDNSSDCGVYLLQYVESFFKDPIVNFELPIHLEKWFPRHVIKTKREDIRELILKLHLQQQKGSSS

[5] = molecular target: T3, Sentrin-specific protease 6 (Homo sapiens, UniProt Q9GZR1);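 also: Luminescence-based dose-response confirmatory assay of SENP6 inhibition, following up an ultra-high-throughput screen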
T3 sequence (Q9GZR1 whole entry): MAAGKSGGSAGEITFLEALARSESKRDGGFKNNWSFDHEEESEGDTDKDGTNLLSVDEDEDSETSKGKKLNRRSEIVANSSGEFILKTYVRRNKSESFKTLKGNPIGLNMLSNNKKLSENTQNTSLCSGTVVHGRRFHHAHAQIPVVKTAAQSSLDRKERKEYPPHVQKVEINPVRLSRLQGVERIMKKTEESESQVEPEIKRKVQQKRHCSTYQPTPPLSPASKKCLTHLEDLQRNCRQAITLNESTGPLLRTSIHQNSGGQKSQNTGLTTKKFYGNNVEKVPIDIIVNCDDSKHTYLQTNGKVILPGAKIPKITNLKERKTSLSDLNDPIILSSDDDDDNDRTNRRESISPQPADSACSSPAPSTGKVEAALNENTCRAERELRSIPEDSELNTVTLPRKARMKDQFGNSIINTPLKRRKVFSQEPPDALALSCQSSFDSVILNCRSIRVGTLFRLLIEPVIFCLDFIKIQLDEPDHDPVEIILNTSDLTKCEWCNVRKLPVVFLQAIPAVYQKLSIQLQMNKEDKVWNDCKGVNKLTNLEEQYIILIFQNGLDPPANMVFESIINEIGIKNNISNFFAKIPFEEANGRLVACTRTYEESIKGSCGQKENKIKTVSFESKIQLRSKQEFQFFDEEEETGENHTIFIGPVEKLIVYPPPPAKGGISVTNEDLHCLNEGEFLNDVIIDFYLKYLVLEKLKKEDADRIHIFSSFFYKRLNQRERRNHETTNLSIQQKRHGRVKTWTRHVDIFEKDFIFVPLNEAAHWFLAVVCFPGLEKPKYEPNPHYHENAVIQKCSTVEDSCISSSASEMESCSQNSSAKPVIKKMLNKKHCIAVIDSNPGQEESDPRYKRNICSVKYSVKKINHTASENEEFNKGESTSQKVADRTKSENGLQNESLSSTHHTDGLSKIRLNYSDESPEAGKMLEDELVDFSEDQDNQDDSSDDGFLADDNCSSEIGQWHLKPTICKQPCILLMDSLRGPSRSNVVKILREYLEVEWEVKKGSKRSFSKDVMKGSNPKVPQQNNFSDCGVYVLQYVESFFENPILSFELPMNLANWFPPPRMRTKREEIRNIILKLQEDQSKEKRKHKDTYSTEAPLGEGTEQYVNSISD

[6] = molecular target: T4, Caspase-3 (Homo sapiens, UniProt P42574);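 also: Dose-response selectivity test against caspase-3 for candidate inhibitors of sentrin-specific proteases (SENPs)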
T4 sequence (P42574 whole entry): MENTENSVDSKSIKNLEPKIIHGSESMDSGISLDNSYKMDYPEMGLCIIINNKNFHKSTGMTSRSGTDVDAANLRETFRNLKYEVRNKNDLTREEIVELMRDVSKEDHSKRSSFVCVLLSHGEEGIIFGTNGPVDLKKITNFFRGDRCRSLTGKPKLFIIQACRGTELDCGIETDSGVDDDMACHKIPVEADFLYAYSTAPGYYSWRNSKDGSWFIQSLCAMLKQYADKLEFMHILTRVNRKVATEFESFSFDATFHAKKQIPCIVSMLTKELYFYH
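For AC50 in this document: cells exposed to compound for roughly 70 hours or longer before luminescence read.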

Cc1oc2c(c1C(=O)N1CCC(C)CC1)C(=O)c1ccccc1C2=O
active: AC50 [1] 6.94 µM | IC50 [2] 23.6 µM | EC50 [3] 16.5 µM | IC50 [4] 40.6 µM | IC50 [5] 13.7 µM | IC50 [6] 10.2 µM

O=[N+]([O-])c1ccc(O)c(C2=NNC(c3ccccc3F)C2)c1 (stereo not given)
active: IC50 [2] 54.5 µM | IC50 [4] 41.6 µM | IC50 [5] 43.5 µM | IC50 [6] 68.6 µM
